# In patent US8633205B2, “Substituted pyrrolo[2,3-d]pyrimidines as inhibitors of protein kinases” (Vertex Pharmaceuticals Incorporated, priority 2005, dated 2014):
# Molecular target: T1, JAK3 (Homo sapiens, UniProt P52333)
# T1 sequence (P52333 1-1124): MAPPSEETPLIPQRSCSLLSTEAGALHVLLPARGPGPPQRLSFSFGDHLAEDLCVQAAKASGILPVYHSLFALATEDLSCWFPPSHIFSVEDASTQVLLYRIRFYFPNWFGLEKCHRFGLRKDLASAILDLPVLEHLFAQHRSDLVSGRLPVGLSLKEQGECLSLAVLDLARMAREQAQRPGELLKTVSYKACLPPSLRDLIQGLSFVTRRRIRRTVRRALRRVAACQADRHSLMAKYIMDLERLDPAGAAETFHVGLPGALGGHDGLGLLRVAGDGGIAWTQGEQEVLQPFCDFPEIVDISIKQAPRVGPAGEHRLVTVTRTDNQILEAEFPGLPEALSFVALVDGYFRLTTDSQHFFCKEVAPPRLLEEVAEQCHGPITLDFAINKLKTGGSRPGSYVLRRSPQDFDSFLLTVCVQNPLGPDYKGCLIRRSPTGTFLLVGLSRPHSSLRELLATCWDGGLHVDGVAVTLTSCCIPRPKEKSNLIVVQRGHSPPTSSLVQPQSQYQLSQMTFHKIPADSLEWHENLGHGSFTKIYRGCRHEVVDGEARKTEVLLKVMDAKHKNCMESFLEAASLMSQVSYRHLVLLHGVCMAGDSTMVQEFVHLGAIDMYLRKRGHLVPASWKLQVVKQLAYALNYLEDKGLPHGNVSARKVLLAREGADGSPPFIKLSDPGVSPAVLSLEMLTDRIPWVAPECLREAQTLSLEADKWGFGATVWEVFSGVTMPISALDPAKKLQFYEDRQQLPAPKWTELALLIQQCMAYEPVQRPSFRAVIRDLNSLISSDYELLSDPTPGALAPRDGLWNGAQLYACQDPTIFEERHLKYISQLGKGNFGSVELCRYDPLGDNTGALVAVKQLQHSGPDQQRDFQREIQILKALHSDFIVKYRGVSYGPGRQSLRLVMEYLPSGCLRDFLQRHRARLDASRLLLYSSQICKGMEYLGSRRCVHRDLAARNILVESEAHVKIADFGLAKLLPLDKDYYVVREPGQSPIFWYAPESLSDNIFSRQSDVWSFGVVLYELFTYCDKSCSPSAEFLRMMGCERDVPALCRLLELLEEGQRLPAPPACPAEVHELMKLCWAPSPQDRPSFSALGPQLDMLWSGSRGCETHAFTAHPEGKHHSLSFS
# Experiment: JAK3 Inhibition Assay
# Assay type: biochemical
# Settings: 1 μM poly(Glu)4Tyr, 5 μM ATP, 1 nM JAK3, 25 °C; read-out: JAK3 enzyme inhibition (Ki)
# Experimental: (§1) Compounds were screened for their ability to inhibit JAK using the […] below. Reactions were carried out in a kinase buffer containing 100 mM HEPES (pH 7.4), 1 mM DTT, 10 mM MgCl2, 25 mM NaCl, and 0.01% BSA.
# (§2) Substrate concentrations in the assay were 5 μM ATP (200 uCi/μmole ATP) 1 μM poly(Glu)4Tyr. Reactions were carried out at 25 ° C. and 1 nM JAK3.
# (§3) To each well of a 96 well polycarbonate plate was added 1.5 μl of a JAK3 inhibitor along with 50 μl of kinase buffer containing 2 μM poly(Glu)4Tyr and 10 μM ATP. This was then mixed and 50 μl of kinase buffer 2 nM JAK3 enzyme was added to start the reaction. After 20 minutes at room temperature (25C), the reaction was stopped with 50 μl of 20% trichloroacetic acid (TCA) that also contained 0.4 mM ATP. The entire contents of each well were then transferred to a 96 well glass fiber filter plate using a TomTek Cell Harvester. After washing, 60 μl of scintillation fluid was added and ^33P incorporation detected on a Perkin Elmer TopCount.
row,Ki [nM],Compound
1,< 500,"c1nc(C2CC3CCC2C3)c2cc[nH]c2n1 (stereo not drawn) [Compound 26, 4-Bicyclo[2.2.1]hept-2-yl-7H-pyrrolo[2,3-d]pyrimidine]"
2,< 500,c1nc(CC2CCCCC2)c2cc[nH]c2n1 [Compound 27]
3,500 to 5000,N#CCCCCc1ncnc2[nH]ccc12 [Compound 28]
4,500 to 5000,c1nc(CCC2OCCCO2)c2cc[nH]c2n1 [Compound 29]
5,500 to 5000,CC(C)(C#N)CCCCc1ncnc2[nH]ccc12 [Compound 30]
6,< 500,CC(C)CCc1ncnc2[nH]ccc12 [Compound 31]

# Molecular target: JAK2 (Homo sapiens, UniProt O60674)
# Experiment: JAK2 Inhibition Assay
# Assay type: biochemical
# Settings: 15 μM poly(Glu)4Tyr, 12 μM ATP; read-out: JAK2 enzyme inhibition (Ki)
# Experimental: as §1, §2, §3
# As described above in Example 11 except that JAK-2 enzyme is used, the final poly(Glu)4Tyr concentration is 15 μM, and final ATP concentration is 12 μM.
# Chain of JAK2 (O60674 whole entry): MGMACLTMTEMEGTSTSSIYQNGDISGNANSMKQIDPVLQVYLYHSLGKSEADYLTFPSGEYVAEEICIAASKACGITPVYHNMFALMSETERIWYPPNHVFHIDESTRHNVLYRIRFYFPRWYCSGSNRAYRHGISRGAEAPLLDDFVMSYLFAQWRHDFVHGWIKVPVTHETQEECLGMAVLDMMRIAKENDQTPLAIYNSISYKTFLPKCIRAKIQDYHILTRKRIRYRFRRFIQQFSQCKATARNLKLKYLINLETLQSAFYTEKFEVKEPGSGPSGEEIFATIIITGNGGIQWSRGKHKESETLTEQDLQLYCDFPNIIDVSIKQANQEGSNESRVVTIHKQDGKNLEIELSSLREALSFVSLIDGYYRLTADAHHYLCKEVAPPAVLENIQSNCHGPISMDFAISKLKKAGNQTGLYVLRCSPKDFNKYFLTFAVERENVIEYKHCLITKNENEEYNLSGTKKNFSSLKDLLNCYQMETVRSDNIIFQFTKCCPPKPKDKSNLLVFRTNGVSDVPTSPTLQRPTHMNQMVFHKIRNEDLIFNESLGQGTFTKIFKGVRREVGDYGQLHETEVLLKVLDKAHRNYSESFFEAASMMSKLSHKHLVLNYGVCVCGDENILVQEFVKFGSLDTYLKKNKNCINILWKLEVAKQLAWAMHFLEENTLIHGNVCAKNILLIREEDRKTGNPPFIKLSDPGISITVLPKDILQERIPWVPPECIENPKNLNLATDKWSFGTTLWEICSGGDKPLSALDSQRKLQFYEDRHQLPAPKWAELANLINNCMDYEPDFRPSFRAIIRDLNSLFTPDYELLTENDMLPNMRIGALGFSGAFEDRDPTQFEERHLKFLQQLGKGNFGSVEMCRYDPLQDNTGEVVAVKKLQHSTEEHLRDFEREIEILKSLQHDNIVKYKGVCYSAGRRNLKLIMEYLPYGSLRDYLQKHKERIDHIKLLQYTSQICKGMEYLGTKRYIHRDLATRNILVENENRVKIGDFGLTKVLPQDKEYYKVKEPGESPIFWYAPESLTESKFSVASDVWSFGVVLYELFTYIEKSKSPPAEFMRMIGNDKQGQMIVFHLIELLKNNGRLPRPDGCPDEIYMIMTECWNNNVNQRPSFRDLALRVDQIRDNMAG
row,Ki [nM],Compound
1,< 500,"c1nc(C2CC3CCC2C3)c2cc[nH]c2n1 (stereo not drawn) [Compound 26, 4-Bicyclo[2.2.1]hept-2-yl-7H-pyrrolo[2,3-d]pyrimidine]"
2,< 500,c1nc(CC2CCCCC2)c2cc[nH]c2n1 [Compound 27]
3,500 to 5000,N#CCCCCc1ncnc2[nH]ccc12 [Compound 28]
4,500 to 5000,c1nc(CCC2OCCCO2)c2cc[nH]c2n1 [Compound 29]
5,500 to 5000,CC(C)(C#N)CCCCc1ncnc2[nH]ccc12 [Compound 30]
6,< 500,CC(C)CCc1ncnc2[nH]ccc12 [Compound 31]

# Molecular target: T2, ROCK (Homo sapiens, UniProt Q13464)
# T2 construct: ROCK I (AA 6-553)
# Experiment: ROCK Inhibition Assays
# Assay type: biochemical
# Settings: read-out: ROCK enzyme inhibition (Ki)
# Experimental: Compounds are screened for their ability to inhibit ROCK I (AA 6-553) activity using a standard coupled enzyme system (Fox et al. Protein Sci. 7: 2249, 1998). Reactions are carried out in a solution containing 100 mM HEPES (pH 7.5), 10 mM MgCl2, 25 mM NaCl, 2 mM DTT and 1.5% DMSO. Final substrate concentrations in the assay are 45 μM ATP (Sigma Chemicals, St Louis, Mo.) and 200 μM peptide (American Peptide, Sunnyvale, Calif.). Reactions are carried out at 30 ° C. and 45 nM ROCK I. Final concentrations of the components of the coupled enzyme system are 2.5 mM phosphoenolpyruvate, 350 μM NADH, 30 μg/ml pyruvate kinase and 10 μg/ml lactate dehydrogenase.
# Compounds are screened for their ability to inhibit ROCK using a standard radioactive enzyme assay. Assays are carried out in a solution containing 100 mM HEPES (pH 7.5), 10 mM MgCl2, 25 mM NaCl, 2 mM DTT and 1.5% DMSO. Final substrate concentrations in the assay are 13 μM [γ-^33P] ATP (25 mCi ^33P ATP/mmol ATP, Perkin Elmer, Cambridge, Mass./Sigma Chemicals, St Louis, Mo.) and 27 μM Myelin Basic Protein (MBP). Final enzyme concentration in the assay is 5 nM ROCK. Assays are carried out at room temperature. 1.5 μl of DMSO stock containing serial dilutions of the compound of the present invention (concentrations ranging from 10 μM to 2.6 nM) is placed in a 96 well plate. 50 μl of Solution 1 (100 mM HEPES (pH 7.5), 10 mM MgCl2, […] [γ-^33P] ATP) is added to the plate. The reaction is initiated by addition of 50 μl of Solution 2 (100 mM HEPES (pH 7.5), 10 mM MgCl2, 4 mM DTT, […] and 10 nM ROCK). After 2 hours the reaction is quenched with 50 μL of 30% trichloroacetic acid (TCA, Fisher) containing 9 mM ATP. Transfer of 140 μL of the quenched reaction to a glass fiber filter plate (Corning, Cat. No.3511) is followed by washing 3 times with 5% TCA. 50 μL of Optima Gold scintillation fluid (Perkin Elmer) is added and the plates are counted on a Top Count (Perkin Elmer). After removing mean background values for all of the data points the data is fit using Prism software to obtain a Ki(app).
# T2 sequence (Q13464 6-553): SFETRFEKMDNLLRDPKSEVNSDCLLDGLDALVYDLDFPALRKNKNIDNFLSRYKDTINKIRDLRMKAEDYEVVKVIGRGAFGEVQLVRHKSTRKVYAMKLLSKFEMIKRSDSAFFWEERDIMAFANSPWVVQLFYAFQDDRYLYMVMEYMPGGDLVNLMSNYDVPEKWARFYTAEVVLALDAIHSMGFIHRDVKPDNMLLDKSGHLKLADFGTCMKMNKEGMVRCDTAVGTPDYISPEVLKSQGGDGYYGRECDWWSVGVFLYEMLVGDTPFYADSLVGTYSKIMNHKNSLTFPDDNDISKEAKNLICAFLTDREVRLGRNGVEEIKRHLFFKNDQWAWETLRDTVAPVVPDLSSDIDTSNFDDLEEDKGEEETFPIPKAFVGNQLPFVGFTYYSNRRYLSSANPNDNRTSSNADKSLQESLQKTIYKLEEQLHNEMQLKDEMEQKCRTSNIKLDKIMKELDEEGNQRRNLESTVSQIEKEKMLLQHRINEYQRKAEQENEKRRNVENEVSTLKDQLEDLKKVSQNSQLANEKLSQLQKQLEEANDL
row,Ki [nM],Compound
1,500 to 5000,"c1nc(C2CC3CCC2C3)c2cc[nH]c2n1 (stereo not drawn) [Compound 26, 4-Bicyclo[2.2.1]hept-2-yl-7H-pyrrolo[2,3-d]pyrimidine]"
2,500 to 5000,c1nc(CC2CCCCC2)c2cc[nH]c2n1 [Compound 27]
3,500 to 5000,N#CCCCCc1ncnc2[nH]ccc12 [Compound 28]
4,500 to 5000,c1nc(CCC2OCCCO2)c2cc[nH]c2n1 [Compound 29]
5,500 to 5000,CC(C)(C#N)CCCCc1ncnc2[nH]ccc12 [Compound 30]
6,500 to 5000,CC(C)CCc1ncnc2[nH]ccc12 [Compound 31]

# Molecular target: PKA (Homo sapiens, UniProt P17612)
# Experiment: PKA Inhibition Assay (coupled enzyme assay)
# Assay type: biochemical
# Settings: 50 μM ATP, 80 μM Kemptide, 18 nM PKA, 30 °C
# Experimental: Compounds were screened for their ability to inhibit PKA using a standard coupled enzyme assay (Fox et al., Protein Sci, 1998, 7, 2249). Assays were carried out in a mixture of 100 mM HEPES (pH 7.5), 10 mM MgCl2, 25 mM NaCl, 1 mM DTT and 3% DMSO. Final substrate concentrations in the assay were 50 μM ATP (Sigma Chemicals) and 80 μM peptide (Kemptide, American Peptide, Sunnyvale, Calif.). Assays were carried out at 30 ° C. and 18 nM PKA. Final concentrations of the components of the coupled enzyme system were 2.5 mM phosphoenolpyruvate, 300 μM NADH, 30 μg/ml pyruvate kinase and 10 μg/ml lactate dehydrogenase.
# An assay stock buffer solution was prepared containing all of the reagents listed above, with the exception of ATP, and the test compound of the present invention. 55 μl of the stock solution was placed in a 96 well plate followed by addition of 2 μl of DMSO stock containing serial dilutions of the test compound of the present invention (typically starting from a final concentration of 5 μM). The plate was preincubated for 10 minutes at 30° C. and the reaction initiated by addition of 5 μl of ATP (final concentration 50 μM). Initial reaction rates were determined with a Molecular Devices SpectraMax Plus plate reader over a 15 minute time course. IC50 and Ki data were calculated from non-linear regression analysis using the Prism software package (GraphPad Prism version 3.0a for Macintosh, GraphPad Software, San Diego, Calif., USA).
row,Ki [nM],Compound
1,500 to 5000,"c1nc(C2CC3CCC2C3)c2cc[nH]c2n1 (stereo not drawn) [Compound 26, 4-Bicyclo[2.2.1]hept-2-yl-7H-pyrrolo[2,3-d]pyrimidine]"
2,500 to 5000,c1nc(CC2CCCCC2)c2cc[nH]c2n1 [Compound 27]
3,500 to 5000,N#CCCCCc1ncnc2[nH]ccc12 [Compound 28]
4,500 to 5000,c1nc(CCC2OCCCO2)c2cc[nH]c2n1 [Compound 29]
5,500 to 5000,CC(C)(C#N)CCCCc1ncnc2[nH]ccc12 [Compound 30]
6,500 to 5000,CC(C)CCc1ncnc2[nH]ccc12 [Compound 31]
